The test system of the data set is fibromyalgia patients. The data set is described as follows: Clinical studies in fibromyalgia patients. It counts as in vivo, human. As for the experimental part:
Pressure of approximate 4 kg/cm^2 is applied manually at multiple anatomic points of patients with fibromyalgia to evaluate pain and tenderness. A useful device for quantitating pain sensitivity is a pressure algometer or dolorimeter. […] Clinical studies are performed in fibromyalgia patients that have not responded to conventional physical therapy and have been present for at least one year. In one embodiment, thalidomide is administered in an amount of 100 to 400 mg per day to patients with fibromyalgia for from three months to one year. A baseline evaluation is performed for the effect of the drug treatment on pain intensity, impact of pain on activities of daily living, and consumption of other pain medications.

Experimental findings from patent publication US20050119194A1, “Methods of using and compositions comprising thalidomide for treatment, modification and management of fibromyalgia” (priority 2003, published 2005) are described below.

For the compound `O=C1CCC(N2C(=O)c3ccccc3C2=O)C(=O)N1` (racemic) [thalidomide, 2-(2,6-dioxo-3-piperidinyl)-1H-isoindole-1,3(2H)-dione], the Tolerability of treatment entry (300 mg continuous oral daily dose) is given as “well-tolerated”. The “Analgesic effect in fibromyalgia” value (100 to 400 mg per day for three months to one year) is given as “analgesic benefit”.
